{"source": "patent US20150329558A1", "about": "“FUSED HETEROCYCLIC COMPOUNDS AS ION CHANNEL MODULATORS” (Gilead Sciences, Inc., priority 2011, published 2015)", "biological_target": "wild-type human cardiac sodium channel, hNav1.5 (late INa) (Homo sapiens, UniProt Q14524)", "sequence (Q14524 whole entry)": "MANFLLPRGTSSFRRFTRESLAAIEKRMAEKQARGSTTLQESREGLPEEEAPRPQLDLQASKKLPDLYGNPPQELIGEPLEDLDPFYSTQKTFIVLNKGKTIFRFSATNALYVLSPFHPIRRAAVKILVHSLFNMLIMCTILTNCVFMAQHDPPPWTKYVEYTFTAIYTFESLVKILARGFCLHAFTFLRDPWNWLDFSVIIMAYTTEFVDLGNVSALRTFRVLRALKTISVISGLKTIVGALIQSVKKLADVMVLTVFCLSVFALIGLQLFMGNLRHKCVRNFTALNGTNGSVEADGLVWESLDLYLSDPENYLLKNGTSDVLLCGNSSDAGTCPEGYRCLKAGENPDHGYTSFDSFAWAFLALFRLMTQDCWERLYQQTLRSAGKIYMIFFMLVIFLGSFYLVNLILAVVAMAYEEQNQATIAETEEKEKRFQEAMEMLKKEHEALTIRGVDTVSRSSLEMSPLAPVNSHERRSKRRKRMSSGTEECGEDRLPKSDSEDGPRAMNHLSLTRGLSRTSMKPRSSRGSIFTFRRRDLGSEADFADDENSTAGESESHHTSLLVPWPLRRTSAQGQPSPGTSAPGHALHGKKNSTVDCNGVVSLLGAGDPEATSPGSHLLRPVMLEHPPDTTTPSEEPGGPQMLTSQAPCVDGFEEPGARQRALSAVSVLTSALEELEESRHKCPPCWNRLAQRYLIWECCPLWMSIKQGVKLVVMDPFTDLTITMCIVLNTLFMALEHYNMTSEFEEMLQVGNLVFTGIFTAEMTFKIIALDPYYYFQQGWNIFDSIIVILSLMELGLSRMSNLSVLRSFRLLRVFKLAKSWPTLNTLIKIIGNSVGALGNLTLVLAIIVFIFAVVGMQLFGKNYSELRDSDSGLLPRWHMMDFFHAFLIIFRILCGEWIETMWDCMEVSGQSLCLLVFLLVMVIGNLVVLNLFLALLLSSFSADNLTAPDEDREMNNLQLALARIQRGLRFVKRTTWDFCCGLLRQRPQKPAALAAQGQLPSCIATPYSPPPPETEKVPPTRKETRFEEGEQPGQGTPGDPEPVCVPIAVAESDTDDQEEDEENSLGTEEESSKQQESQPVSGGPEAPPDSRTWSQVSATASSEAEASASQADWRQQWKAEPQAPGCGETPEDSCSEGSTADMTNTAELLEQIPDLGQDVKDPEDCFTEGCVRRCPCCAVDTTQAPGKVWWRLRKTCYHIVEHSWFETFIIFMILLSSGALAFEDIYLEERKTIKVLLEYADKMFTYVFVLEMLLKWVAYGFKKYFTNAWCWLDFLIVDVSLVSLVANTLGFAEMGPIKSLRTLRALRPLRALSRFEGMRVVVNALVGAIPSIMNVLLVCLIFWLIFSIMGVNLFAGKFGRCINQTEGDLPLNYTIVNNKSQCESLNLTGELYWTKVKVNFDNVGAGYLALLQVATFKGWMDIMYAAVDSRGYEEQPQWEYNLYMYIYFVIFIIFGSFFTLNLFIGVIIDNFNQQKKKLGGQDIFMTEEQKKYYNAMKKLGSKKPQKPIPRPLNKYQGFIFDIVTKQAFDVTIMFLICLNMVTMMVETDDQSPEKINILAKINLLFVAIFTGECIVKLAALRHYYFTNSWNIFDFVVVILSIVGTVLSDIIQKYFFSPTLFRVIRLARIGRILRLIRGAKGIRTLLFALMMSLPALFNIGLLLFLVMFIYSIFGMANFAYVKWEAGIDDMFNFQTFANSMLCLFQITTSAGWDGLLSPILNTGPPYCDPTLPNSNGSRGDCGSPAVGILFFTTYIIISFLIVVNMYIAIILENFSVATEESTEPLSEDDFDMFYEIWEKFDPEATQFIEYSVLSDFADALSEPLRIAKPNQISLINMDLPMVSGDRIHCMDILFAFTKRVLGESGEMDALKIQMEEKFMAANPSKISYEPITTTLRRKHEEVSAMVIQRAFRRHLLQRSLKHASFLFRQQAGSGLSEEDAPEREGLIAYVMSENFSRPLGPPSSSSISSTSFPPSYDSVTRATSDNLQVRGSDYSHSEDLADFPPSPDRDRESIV", "assay": "Late INa screening assay (QPatch whole cell patch clamp)", "assay_type": "cell-based", "conditions": "percent block of late INa, compound at 1 μM, 10 μM Tefluthrin, HEK293 hNav1.5; read-out: Late INa 1 μM", "experimental": "The late sodium current (Late INa) and peak sodium current (Peak INa) assays are performed on an automated electrophysiology platform, QPatch 16× (Sophion Bioscience, Copenhagen, Denmark), which uses the whole cell patch clamp technique to measure currents through the cell membrane of up to 16 cells at a time. The assay uses an HEK293 (human embryonic kidney) cell line heterologously expressing the wild-type human cardiac sodium channel, hNav1.5, purchased from Millipore (Billerica, Mass.). No beta subunits were coexpressed with the Na channel alpha subunit. Cells are maintained with standard tissue culture procedures and stable channel expression is maintained with 400 μg/mL Geneticin in the culture medium. […] Experiments are carried out at 23-25° C. For both the Late INa and Peak INa assays, series resistance compensation is set to 100% and series resistance and whole-cell compensation are performed automatically. Currents are digitized at 25 kHz and low-pass filtered at 12 kHz and 10 kHz for the late and peak INa assays, respectively. Currents through open sodium channels are automatically recorded and stored in the Sophion Bioscience Oracle database (Sophion Bioscience, Copehagen, Denmark). Analysis is performed using QPatch Assay and database software and data are compiled in Excel. Compound stocks are routinely made by the Gilead Sample Bank in plastic vials to 10 mM in dimethyl sulfoxide (DMSO). In some cases, when compounds are not soluble in DMSO, they are made in 100% ethanol. Stocks are sonicated as necessary. […] The intracellular solution used to perfuse the inside of the cells for both the Late INa and Peak INa assays contains: 120 mM CsF, 20 mM CsCl, 5 mM EGTA, 5 mM HEPES and pH adjusted to 7.4 with CsOH. Compounds are diluted in extracellular solution to 1 μM in glass vials and then transferred to glass well plates before robotic addition to the cells. […] For the Late INa assay, sodium channels are activated every 10 seconds (0.1 Hz) by depolarizing the cell membrane to −20 mV for 250 milliseconds (ms) from a holding potential of −120 mV. In response to a −20 mV voltage step, typical hNav1.5 sodium currents activate rapidly to a peak negative current and then inactivate nearly completely within 3-4 ms. All compounds were tested to determine their activity in blocking the late sodium current. Late INa was generated by adding 10 μM Tefluthrin (pyrethroid) to the extracellular solution while recording Na currents. To confirm the block of late INa observed using the automated screening method, a second late INa enhancer (ATX-II) and the manual patch clamp method were used. ATX-II and tefluthrin occupy distinct, non-overlapping binding sites and modify Na^+ channel function differently to increase late INa. […] For the purposes of the screening, late INa is defined as the mean current between 225 ms and 250 ms after stepping to −20 mV to activate Na channels. […] Results are reported as percent block of late INa."}
{"molecule": "O=C(c1cnnn1-c1ccccc1)N1CCc2ccc(-c3ccc(C(F)(F)F)cc3)cc2C1", "note": "[IX-116, (1-phenyl-1H-1,2,3-triazol-5-yl)(7-(4-(trifluoromethyl)phenyl)-3,4-dihydroisoquinolin-2(1H)-yl)methanone]", "values": [{"measurement": "inhibition at 1 µM", "result": 29, "unit": "%"}]}
{"molecule": "O=C1c2cc(C#Cc3ccc(OC(F)(F)F)cc3)ccc2CCN1Cc1ncccn1", "note": "[IX-5]", "values": [{"measurement": "inhibition at 1 µM", "result": 20, "unit": "%"}]}
{"molecule": "O=C1c2cc(C#Cc3ccc(C(F)(F)F)cc3)ccc2CCN1Cc1ncccn1", "note": "[IX-4]", "values": [{"measurement": "inhibition at 1 µM", "result": 20, "unit": "%"}]}
{"molecule": "O=c1c2cc(-c3ccc(OC(F)(F)F)cc3)ccc2nnn1Cc1ccccc1", "note": "[II-42, 3-benzyl-6-(4-(trifluoromethoxy)phenyl)benzo[d][1,2,3]triazin-4(3H)-one]", "values": [{"measurement": "inhibition at 1 µM", "result": 23, "unit": "%"}]}
{"molecule": "O=C(N1CCc2ccc(-c3ccc(C(F)(F)F)cc3)cc2C1)N1CC[C@@H](CO)C1", "note": "[IX-101, (R)-(3-(hydroxymethyl)pyrrolidin-1-yl)(7-(4-(trifluoromethyl)phenyl)-3,4-dihydroisoquinolin-2(1H)-yl)methanone]", "values": [{"measurement": "inhibition at 1 µM", "result": 15, "unit": "%"}]}
{"molecule": "N#CC1(n2nnc3ccc(-c4ccc(OC(F)(F)F)cc4)cc3c2=O)CC1", "note": "[II-33, 1-(4-oxo-6-(4-(trifluoromethoxy)phenyl)benzo[d][1,2,3]triazin-3 (4H)-yl)cyclopropanecarbonitrile]", "values": [{"measurement": "inhibition at 1 µM", "result": 26, "unit": "%"}]}
{"molecule": "O=C(N1CCc2ccc(-c3ccc(C(F)(F)F)cc3)cc2C1)N1CC(CO)C1", "note": "[IX-113, (3-(hydroxymethyl)azetidin-1-yl)(7-(4-(trifluoromethyl)phenyl)-3,4-dihydroisoquinolin-2(1H)-yl)methanone]", "values": [{"measurement": "inhibition at 1 µM", "result": 17, "unit": "%"}]}
{"molecule": "O=C(N1CCc2ccc(-c3ccc(C(F)(F)F)cc3)cc2C1)N1CCC(O)C1", "note": "(centres unmarked) [IX-91, (3-hydroxypyrrolidin-1-yl)(7-(4-(trifluoromethyl)phenyl)-3,4-dihydroisoquinolin-2(1H)-yl)methanoneo]", "values": [{"measurement": "inhibition at 1 µM", "result": 16, "unit": "%"}]}
{"molecule": "C[C@@H]1CC[C@H](C)N1C(=O)N1CCc2ccc(-c3ccc(C(F)(F)F)cc3)cc2C1", "note": "[IX-106]", "values": [{"measurement": "inhibition at 1 µM", "result": 21, "unit": "%"}]}
{"molecule": "O=c1c2cc(-c3ccc(OC(F)(F)F)cc3)ccc2cnn1CCn1cncn1", "note": "[III-26, 2-(2-(1H-1,2,4-triazol-1-yl)ethyl)-7-(4-(trifluoromethoxy)phenyl)phthalazin-1 (2H)-one]", "values": [{"measurement": "inhibition at 1 µM", "result": 26, "unit": "%"}]}
{"molecule": "O=c1c2cc(-c3ccc(OC(F)(F)F)cc3)ccc2nnn1C1CCN(c2ncccn2)CC1", "note": "[II-39, 3-(1-(pyrimidin-2-yl)piperidin-4-yl)-6-(4-(trifluoromethoxy)phenyl)benzo[d][1,2,3]triazin-4(3H)-one]", "values": [{"measurement": "inhibition at 1 µM", "result": 16, "unit": "%"}]}
{"molecule": "O=c1c2cc(-c3ccc(OC(F)(F)F)cc3)ccc2nnn1CC1(Cn2ccnc2)CC1", "note": "[II-58, 3-((1-((1H-imidazol-1-yl)methyl)cyclopropyl)methyl)-6-(4-(trifluoromethoxy)phenyl)benzo[d][1,2,3]triazin-4(3H)-one]", "values": [{"measurement": "inhibition at 1 µM", "result": 25, "unit": "%"}]}
{"molecule": "O=c1c2cc(-c3ccc(OC(F)(F)F)cc3)ccc2nnn1Cn1nnnc1-c1ccccc1", "note": "[II-21, 3-((5-phenyl-1H-tetrazol-1-yl)methyl)-6-(4-(trifluoromethoxy)phenyl)benzo[d][1,2,3]triazin-4(3H)-one]", "values": [{"measurement": "inhibition at 1 µM", "result": 70, "unit": "%"}]}
{"molecule": "CCOC(=O)Cn1cc(C(=O)N2CCc3ccc(-c4ccc(C(F)(F)F)cc4)cc3C2)nn1", "note": "[IX-119, ethyl 2-(4-(7-(4-(trifluoromethyl)phenyl)-1,2,3,4-tetrahydroisoquinoline-2-carbonyl)-1H-1,2,3-triazol-1-yl)acetate]", "values": [{"measurement": "inhibition at 1 µM", "result": 15, "unit": "%"}]}
{"molecule": "Cn1cnc(S(=O)(=O)N2CCc3ccc(-c4ccc(C(F)(F)F)cc4)cc3C2)c1", "note": "[IX-98, 2-(1-methyl-1H-imidazol-4-ylsulfonyl)-7-(4-(trifluoromethyl)phenyl)-1,2,3,4-tetrahydroisoquinoline]", "values": [{"measurement": "inhibition at 1 µM", "result": 27, "unit": "%"}]}
{"molecule": "CC(C)n1cc(C(=O)N2CCc3ccc(-c4ccc(C(F)(F)F)cc4)cc3C2)cn1", "note": "[IX-27, (1-isopropyl-1H-pyrazol-4-yl)(7-(4-(trifluoromethyl)phenyl)-3,4-dihydroisoquinolin-2(1H)-yl)methanone]", "values": [{"measurement": "inhibition at 1 µM", "result": 18, "unit": "%"}]}
{"molecule": "O=c1c2cc(-c3ccc(OC(F)(F)F)cc3)ccc2cnn1CCc1ccccc1", "note": "[III-8, 2-phenethyl-7-(4-(trifluoromethoxy)phenyl)phthalazin-1(2H)-one]", "values": [{"measurement": "inhibition at 1 µM", "result": 19, "unit": "%"}]}
{"molecule": "CC(C)c1nccc(C(=O)N2CCc3ccc(-c4ccc(C(F)(F)F)cc4)cc3C2)n1", "note": "[IX-31, (2-isopropylpyrimidin-4-yl)(7-(4-(trifluoromethyl)phenyl)-3,4-dihydroisoquinolin-2(1H)-yl)methanone]", "values": [{"measurement": "inhibition at 1 µM", "result": 25, "unit": "%"}]}
{"molecule": "O=C(NC1CCCC1)N1CCc2ccc(-c3ccc(C(F)(F)F)cc3)cc2C1", "note": "[IX-77, N-cyclopentyl-7-(4-(trifluoromethyl)phenyl)-3,4-dihydroisoquinoline-2(1H)-carboxamide]", "values": [{"measurement": "inhibition at 1 µM", "result": 22, "unit": "%"}]}
{"molecule": "O=C(N1CCc2ccc(-c3ccc(C(F)(F)F)cc3)cc2C1)N1CC(F)(F)C1", "note": "[IX-92, (3,3-difluoroazetidin-1-yl)(7-(4-(trifluoromethyl)phenyl)-3,4-dihydroisoquinolin-2(1H)-yl)methanone]", "values": [{"measurement": "inhibition at 1 µM", "result": 17, "unit": "%"}]}
{"molecule": "O=c1c2cc(-c3ccc(OC(F)(F)F)cc3)ccc2nnn1Cc1nc(Cc2ccccc2)no1", "note": "[II-12, 3-((3-benzyl-1,2,4-oxadiazol-5-yl)methyl)-6-(4-(trifluoromethoxy)phenyl)benzo[d][1,2,3]triazin-4(3H)-one]", "values": [{"measurement": "inhibition at 1 µM", "result": 21, "unit": "%"}]}
{"molecule": "O=C1c2cc(-c3ccc(C(F)(F)F)cc3)ccc2OCN1Cc1ccccc1", "note": "[VIII-21, 3-benzyl-6-(4-(trifluoromethyl)phenyl)-2H-benzo[e][1,3]oxazin-4(3H)-one]", "values": [{"measurement": "inhibition at 1 µM", "result": 58, "unit": "%"}]}
{"molecule": "O=c1c2cc(-c3ccc(OC(F)(F)F)cc3)ccc2nnn1Cc1cc(-c2ccccc2)no1", "note": "[II-10, 3-((3-phenylisoxazol-5-yl)methyl)-6-(4-(trifluoromethoxy)phenyl)benzo[d][1,2,3]triazin-4(3H)-one]", "values": [{"measurement": "inhibition at 1 µM", "result": 21, "unit": "%"}]}
{"molecule": "O=C1c2cc(-c3ccc(C(F)(F)F)cc3)ccc2OCN1Cc1ncccn1", "note": "[VIII-19, 3-(pyrimidin-2-ylmethyl)-6-(4-(trifluoromethyl)phenyl)-2H-benzo[e][1,3]oxazin-4(3H)-one]", "values": [{"measurement": "inhibition at 1 µM", "result": 61, "unit": "%"}]}
{"molecule": "O=C(c1ncccn1)N1CCc2ccc(-c3ccc(Cl)cc3F)cc2C1", "note": "[IX-23, (7-(4-chloro-2-fluorophenyl)-3,4-dihydroisoquinolin-2(1H)-yl)(pyrimidin-2-yl)methanone]", "values": [{"measurement": "inhibition at 1 µM", "result": 27, "unit": "%"}]}
{"molecule": "O=c1c2cc(-c3ccc(C(F)(F)F)nc3)ccc2nnn1CCOc1ncccn1", "note": "[Compound V-11, 3-(2-(pyrimidin-2-yloxy)ethyl)-6-(6-(trifluoromethyl)pyridin-3-yl)benzo[d][1,2,3]triazin-4(3H)-one]", "values": [{"measurement": "inhibition at 1 µM", "result": 22, "unit": "%"}]}
{"molecule": "CC1(O)CN(C(=O)N2CCc3ccc(-c4ccc(C(F)(F)F)cc4)cc3C2)C1", "note": "[IX-112, (3-hydroxy-3-methylazetidin-1-yl)(7-(4-(trifluoromethyl)phenyl)-3,4-dihydroisoquinolin-2(1H)-yl)methanone]", "values": [{"measurement": "inhibition at 1 µM", "result": 18, "unit": "%"}]}
{"molecule": "O=C(Cc1ncccn1)N1CCc2ccc(-c3ccc(C(F)(F)F)cc3)cc2C1", "note": "[IX-30, 2-(pyrimidin-2-yl)-1-(7-(4-(trifluoromethyl)phenyl)-3,4-dihydroisoquinolin-2(1H)-yl)ethanone]", "values": [{"measurement": "inhibition at 1 µM", "result": 20, "unit": "%"}]}
{"molecule": "Cn1cncc1C(=O)N1CCc2ccc(-c3ccc(C(F)(F)F)cc3)cc2C1", "note": "[IX-56, (1-methyl-1H-imidazol-5-yl)(7-(4-(trifluoromethyl)phenyl)-3,4-dihydroisoquinolin-2(1H)-yl)methanone]", "values": [{"measurement": "inhibition at 1 µM", "result": 28, "unit": "%"}]}
{"molecule": "O=C(c1[nH]cnc1F)N1CCc2ccc(-c3ccc(C(F)(F)F)cc3)cc2C1", "note": "[IX-59, (4-fluoro-1H-imidazol-5-yl)(7-(4-(trifluoromethyl)phenyl)-3,4-dihydroisoquinolin-2(1H)-yl)methanone]", "values": [{"measurement": "inhibition at 1 µM", "result": 17, "unit": "%"}]}
{"molecule": "O=c1c2cc(-c3ccc(OC(F)(F)F)cc3)ccc2cnn1CCn1cc(Br)cn1", "note": "[III-31, 2-(2-(4-bromo-1H-pyrazol-1-yl)ethyl)-7-(4-(trifluoromethoxy)phenyl)phthalazin-1 (2H)-one]", "values": [{"measurement": "inhibition at 1 µM", "result": 27, "unit": "%"}]}
{"molecule": "O=C1c2cc(-c3ccc(OC(F)(F)F)cc3)ccc2OCN1Cc1ccccc1", "note": "[VIII-23, 3-benzyl-6-(4-(trifluoromethoxy)phenyl)-2H-benzo[e][1,3]oxazin-4(3H)-one]", "values": [{"measurement": "inhibition at 1 µM", "result": 48, "unit": "%"}]}
